Experimental data from ChEMBL document CHEMBL3352756, “Synthesis and evaluation of pyrazolines bearing benzothiazole as anti-inflammatory agents” (Bioorg Med Chem, 2014).

Experiments:
[1] = test system: Rattus norvegicus; assay: Toxicity in rat assessed as damage to epithelial layer of stomach at 60 mg/kg, po after 5 hrs; format: organism-based; parameters: dose 60 mg/kg, route oral; conditions: in vivo
[2] = test system: Rattus norvegicus; assay: Toxicity in rat assessed as ulceration at 60 mg/kg, po after 5 hrs; format: organism-based; parameters: dose 60 mg/kg, route oral; conditions: in vivo
[3] = (§1) Cytotoxicity against mouse RAW264.7 cells assessed as cell viability at 20 uM after 24 hrs by MTT assay in presence of LPS; format: cell-based; conditions: RAW264.7 cells, read-out: Activity
[4] = test system: Rattus norvegicus; assay: Antiinflammatory activity in albino Wistar rat paw edema model assessed as inhibition of carrageenan-induced paw edema at 20 mg/kg, po administered 1 hr prior to carrageenan challenge measured after 3 to 5 hrs by plethysmometry relative to vehicle-treated control; format: functional
[5] = test system: RAW264.7; assay: Antiinflammatory activity in mouse RAW264.7 cells assessed as inhibition of LPS-induced TNF-alpha release at 20 uM after 24 hrs by ELISA; format: functional; conditions: RAW264.7, 24 h
[6] = test system: RAW264.7; assay: as §1; format: cell-based; conditions: raw264.7, 24 h, 20 µM

Structure (SMILES) | Activity [1] | Activity [2] | viability at 24 h, 20 µM [3] | inhibition in vivo at 20 mg/kg [4] | inhibition at 20 µM [5] | Activity [6]
NS(=O)(=O)c1ccc2nc(N3N=C(c4ccc(Cl)cc4)CC3c3ccccc3)sc2c1 (stereo unspecified) | Non-toxic | Non-toxic | > 90% | 68.3% | 72.2% | –
NS(=O)(=O)c1ccc2nc(N3N=C(c4ccc(Cl)cc4)CC3c3ccc(Cl)cc3)sc2c1 (stereo unspecified) | Non-toxic | Non-toxic | > 90% | – | 38% | –
COc1ccc(C2CC(c3ccc(Br)cc3)=NN2c2nc3ccc(S(N)(=O)=O)cc3s2)cc1 (stereo unspecified) | – | – | 86% | – | 38% | –
Cc1ccc(C2CC(c3ccc(Cl)cc3)=NN2c2nc3ccc(S(N)(=O)=O)cc3s2)cc1 (stereo unspecified) | – | – | – | – | 38% | –
NS(=O)(=O)c1ccc2nc(N3N=C(c4ccc(Br)cc4)CC3c3ccc(F)cc3)sc2c1 (stereo unspecified) | – | – | 86% | – | 38% | –
Cc1ccc(-c2cc(C(F)(F)F)nn2-c2ccc(S(N)(=O)=O)cc2)cc1 [CELECOXIB] | Non-toxic | Non-toxic | – | 67% | 53.4% | –
NS(=O)(=O)c1ccc2nc(N3N=C(c4ccc(Cl)cc4)CC3c3ccc(F)cc3)sc2c1 (stereo unspecified) | – | – | 86% | – | 38% | –
NS(=O)(=O)c1ccc2nc(N3N=C(c4ccc(Cl)cc4)CC3c3ccccc3Cl)sc2c1 (stereo unspecified) | Non-toxic | Non-toxic | > 90% | – | 38% | –
COc1ccc(C2CC(c3ccc(Cl)cc3)=NN2c2nc3ccc(S(N)(=O)=O)cc3s2)cc1 (stereo unspecified) | – | – | – | 67.7% | 38% | Toxic
NS(=O)(=O)c1ccc2nc(N3N=C(c4ccc(Br)cc4)CC3c3ccc(Cl)cc3)sc2c1 (stereo unspecified) | Non-toxic | Non-toxic | 90% | – | 71.7% | –
